The test system of this assay is bnk-tTa × tRe-Nipp1Dm. Nature of the assay: Tc-repressible lethality using an embryo-specific promoter (Table 2), adult progeny by sex. Format: in vivo, Drosophila melanogaster. The settings on record: embryos laid on this food for 9 days. From the text:
Flies were reared on standard yeast/cornmeal/agar food with a yeast concentration of 45-50 gl^−1. Tc-containing food was made to the same recipe with the addition of tetracycline hydrochloride (Sigma-Aldrich) solution to the appropriate final concentration.
As ectopic Ras64B^V12 apparently lacks embryonic toxicity under the conditions we are using, we placed a different toxic gene under the control of tRe. We chose to use Nipp1Dm, a Drosophila homolog of mammalian NIPP-1, a nuclear inhibitor of protein phosphatase type 1 (Beullens et al., (1992), J. Biol. Chem. 267, 16538-16544; Van Eynde et al., (1995), J Biol Chem 270, 28068-74). NIPP1 has several advantages as a “killer gene” in this system. Flies carrying homozygous insertions of bnk-tTa or tRe-Nipp1 were crossed to each other. […] Furthermore, F1 survival was not affected by the presence or absence of Tc in the media on which the F1 were raised. We have therefore constructed an efficient dominant lethal genetic system repressible by parental dietary Tc.
Males homozygous for bnk-tTa were mated with females homozygous for either tRe-Ras64B^V12 or tRe-Nipp1Dm. These flies were raised on media lacking Tc, but before mating were placed on food containing various concentrations of Tc. They were allowed to lay embryos on this food for 9 days, and then the parents were removed. Their adult progeny of each sex were counted.

Setting [1] is: parents on food containing Tc 0.1 μg/ml.
The mark [2] stands for this setting: parents on food containing Tc 1.0 μg/ml.

Structures are written as SMILES.

Regarding `CN(C)[C@@H]1C(O)=C(C(N)=O)C(=O)[C@@]2(O)C(O)=C3C(=O)c4c(O)cccc4[C@@](C)(O)[C@H]3C[C@@H]12` [Tetracycline, tetracycline], the “Females, adult progeny” value runs as follows: under setting [1], 58; under setting [2], 82. For the same compound, the “Males, adult progeny” value under setting [1] is given as 60 and the “Males, adult progeny” value under setting [2] worked out at 78.

For the origin of these results see patent US9125388B2, “Biological control” (Isis Innovation Limited, priority 1999, dated 2015).
